IC50 data for one molecule are collected here from patent US11993598B2, “Compounds for inhibiting EGFR kinase, preparation methods and uses thereof” (WIGEN BIOMEDICINE TECHNOLOGY (SHANGHAI) CO., LTD., priority 2019, dated 2024).

Among the targets are EGFR D770-N771insNPG (Homo sapiens, UniProt P00533, INS770NPG); EGFR Del19 (Homo sapiens, UniProt P00533); EGFR L792H (Homo sapiens, UniProt P00533, L792H); EGFR T790M/L858R (Homo sapiens, UniProt P00533, L858R/T790M).
Common to all, as to test: Mutant EGFR biochemical activity assay (HTRF)
For orientation: In TR-FRET formats the signal depends on donor and acceptor labels being close together.

The target in assay [1] is EGFR D770_N771insNPG T790M (Homo sapiens, UniProt P00533, INS770NPG/T790M). Conditions: read-out: IC50 (nM) EGFR D770_N771 insNPG T790M.
Chain of EGFR D770_N771insNPG T790M (P00533 with tags, fused parts or gaps INS770NPG/T790M limits assumed): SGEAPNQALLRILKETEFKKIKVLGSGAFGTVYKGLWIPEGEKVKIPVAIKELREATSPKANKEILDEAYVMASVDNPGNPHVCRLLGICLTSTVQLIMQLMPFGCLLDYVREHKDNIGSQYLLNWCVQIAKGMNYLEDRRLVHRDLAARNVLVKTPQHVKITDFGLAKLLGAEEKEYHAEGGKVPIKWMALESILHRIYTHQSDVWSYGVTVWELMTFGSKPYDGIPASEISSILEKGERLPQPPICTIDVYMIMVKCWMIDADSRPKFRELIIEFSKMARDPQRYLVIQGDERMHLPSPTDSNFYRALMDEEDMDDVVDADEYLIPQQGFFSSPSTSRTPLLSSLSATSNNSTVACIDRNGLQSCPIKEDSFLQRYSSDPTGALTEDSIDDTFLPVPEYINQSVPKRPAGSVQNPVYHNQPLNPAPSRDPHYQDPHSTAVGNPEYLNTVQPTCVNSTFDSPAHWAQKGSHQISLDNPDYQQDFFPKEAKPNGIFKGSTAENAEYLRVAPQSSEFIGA

Chain of EGFR Del19 (P00533 with tags, fused parts or gaps DEL746-750): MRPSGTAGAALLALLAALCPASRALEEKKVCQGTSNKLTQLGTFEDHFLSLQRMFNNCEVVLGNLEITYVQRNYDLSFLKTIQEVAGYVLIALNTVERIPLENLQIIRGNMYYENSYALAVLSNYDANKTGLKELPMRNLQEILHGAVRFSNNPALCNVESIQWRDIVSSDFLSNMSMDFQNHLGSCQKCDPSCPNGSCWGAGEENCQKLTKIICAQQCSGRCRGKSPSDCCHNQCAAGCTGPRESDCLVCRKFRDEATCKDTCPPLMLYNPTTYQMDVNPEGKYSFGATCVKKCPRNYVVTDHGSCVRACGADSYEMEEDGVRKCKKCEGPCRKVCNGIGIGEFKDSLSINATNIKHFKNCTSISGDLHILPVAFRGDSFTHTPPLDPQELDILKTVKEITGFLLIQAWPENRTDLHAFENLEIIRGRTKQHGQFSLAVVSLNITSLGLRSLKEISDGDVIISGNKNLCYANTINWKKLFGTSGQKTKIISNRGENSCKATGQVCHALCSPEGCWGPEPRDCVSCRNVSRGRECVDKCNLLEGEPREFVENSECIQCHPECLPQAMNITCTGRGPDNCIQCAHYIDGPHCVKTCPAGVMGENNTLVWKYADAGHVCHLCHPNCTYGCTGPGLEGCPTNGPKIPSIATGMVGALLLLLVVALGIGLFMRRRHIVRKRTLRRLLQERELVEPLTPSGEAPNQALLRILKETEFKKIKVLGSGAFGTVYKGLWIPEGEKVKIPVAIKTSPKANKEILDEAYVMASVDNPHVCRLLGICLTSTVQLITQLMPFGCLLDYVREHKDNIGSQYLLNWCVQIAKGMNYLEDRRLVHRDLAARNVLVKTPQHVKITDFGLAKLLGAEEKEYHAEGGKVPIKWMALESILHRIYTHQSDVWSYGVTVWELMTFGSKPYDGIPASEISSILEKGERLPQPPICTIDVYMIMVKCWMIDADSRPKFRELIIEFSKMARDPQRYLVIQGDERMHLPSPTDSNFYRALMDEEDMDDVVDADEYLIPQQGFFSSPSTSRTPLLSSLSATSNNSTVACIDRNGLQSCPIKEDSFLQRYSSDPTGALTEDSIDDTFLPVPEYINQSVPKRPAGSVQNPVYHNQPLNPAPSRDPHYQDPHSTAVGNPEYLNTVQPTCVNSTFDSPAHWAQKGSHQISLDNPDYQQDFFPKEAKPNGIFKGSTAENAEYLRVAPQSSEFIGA
Chain of EGFR D770-N771insNPG (P00533 with tags, fused parts or gaps INS770NPG limits assumed): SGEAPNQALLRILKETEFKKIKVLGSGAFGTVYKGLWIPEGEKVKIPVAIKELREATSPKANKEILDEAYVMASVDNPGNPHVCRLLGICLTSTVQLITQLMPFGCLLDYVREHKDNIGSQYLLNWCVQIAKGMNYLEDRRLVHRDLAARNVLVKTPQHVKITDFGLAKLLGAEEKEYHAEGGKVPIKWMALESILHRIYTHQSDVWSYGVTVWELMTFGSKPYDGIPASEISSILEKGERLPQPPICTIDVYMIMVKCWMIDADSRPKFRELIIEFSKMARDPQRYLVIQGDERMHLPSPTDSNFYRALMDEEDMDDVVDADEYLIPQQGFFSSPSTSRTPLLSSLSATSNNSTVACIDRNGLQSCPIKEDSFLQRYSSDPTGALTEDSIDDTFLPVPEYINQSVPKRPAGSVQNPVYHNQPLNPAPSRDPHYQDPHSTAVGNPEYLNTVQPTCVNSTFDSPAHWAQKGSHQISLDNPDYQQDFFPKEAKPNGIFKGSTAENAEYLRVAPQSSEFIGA
Chain of EGFR T790M/L858R (P00533 25-1210 T790M/L858R): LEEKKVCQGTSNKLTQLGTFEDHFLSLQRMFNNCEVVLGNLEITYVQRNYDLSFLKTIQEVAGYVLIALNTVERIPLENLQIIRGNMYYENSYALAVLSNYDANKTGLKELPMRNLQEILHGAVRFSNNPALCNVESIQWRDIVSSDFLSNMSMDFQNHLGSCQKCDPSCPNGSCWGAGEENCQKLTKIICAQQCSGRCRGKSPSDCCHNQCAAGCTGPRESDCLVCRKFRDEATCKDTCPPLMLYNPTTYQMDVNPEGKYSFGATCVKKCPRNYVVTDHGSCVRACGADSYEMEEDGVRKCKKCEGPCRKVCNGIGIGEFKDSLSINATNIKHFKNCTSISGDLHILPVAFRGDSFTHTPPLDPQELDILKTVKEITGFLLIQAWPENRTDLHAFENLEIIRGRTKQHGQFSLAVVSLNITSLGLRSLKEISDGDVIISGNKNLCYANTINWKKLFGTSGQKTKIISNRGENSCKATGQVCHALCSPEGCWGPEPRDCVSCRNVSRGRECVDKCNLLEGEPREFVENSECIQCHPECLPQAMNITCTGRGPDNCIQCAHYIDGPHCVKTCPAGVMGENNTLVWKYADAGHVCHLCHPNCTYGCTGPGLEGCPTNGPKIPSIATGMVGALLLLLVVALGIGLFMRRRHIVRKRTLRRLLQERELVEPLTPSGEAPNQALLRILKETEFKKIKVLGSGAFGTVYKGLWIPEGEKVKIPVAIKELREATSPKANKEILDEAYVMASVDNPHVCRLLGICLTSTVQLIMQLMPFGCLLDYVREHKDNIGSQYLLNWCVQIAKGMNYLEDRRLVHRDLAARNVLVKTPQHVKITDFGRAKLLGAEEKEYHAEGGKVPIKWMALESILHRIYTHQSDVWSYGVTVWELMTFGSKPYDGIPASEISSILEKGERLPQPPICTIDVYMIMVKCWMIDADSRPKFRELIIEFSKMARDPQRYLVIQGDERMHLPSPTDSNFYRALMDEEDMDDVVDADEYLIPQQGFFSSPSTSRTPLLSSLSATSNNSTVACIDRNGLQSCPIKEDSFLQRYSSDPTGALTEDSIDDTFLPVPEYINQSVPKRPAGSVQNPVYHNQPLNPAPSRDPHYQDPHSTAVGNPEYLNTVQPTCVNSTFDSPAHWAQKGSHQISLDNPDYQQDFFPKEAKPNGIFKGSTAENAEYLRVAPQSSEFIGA
Chain of EGFR L792H (P00533 25-1210 L792H): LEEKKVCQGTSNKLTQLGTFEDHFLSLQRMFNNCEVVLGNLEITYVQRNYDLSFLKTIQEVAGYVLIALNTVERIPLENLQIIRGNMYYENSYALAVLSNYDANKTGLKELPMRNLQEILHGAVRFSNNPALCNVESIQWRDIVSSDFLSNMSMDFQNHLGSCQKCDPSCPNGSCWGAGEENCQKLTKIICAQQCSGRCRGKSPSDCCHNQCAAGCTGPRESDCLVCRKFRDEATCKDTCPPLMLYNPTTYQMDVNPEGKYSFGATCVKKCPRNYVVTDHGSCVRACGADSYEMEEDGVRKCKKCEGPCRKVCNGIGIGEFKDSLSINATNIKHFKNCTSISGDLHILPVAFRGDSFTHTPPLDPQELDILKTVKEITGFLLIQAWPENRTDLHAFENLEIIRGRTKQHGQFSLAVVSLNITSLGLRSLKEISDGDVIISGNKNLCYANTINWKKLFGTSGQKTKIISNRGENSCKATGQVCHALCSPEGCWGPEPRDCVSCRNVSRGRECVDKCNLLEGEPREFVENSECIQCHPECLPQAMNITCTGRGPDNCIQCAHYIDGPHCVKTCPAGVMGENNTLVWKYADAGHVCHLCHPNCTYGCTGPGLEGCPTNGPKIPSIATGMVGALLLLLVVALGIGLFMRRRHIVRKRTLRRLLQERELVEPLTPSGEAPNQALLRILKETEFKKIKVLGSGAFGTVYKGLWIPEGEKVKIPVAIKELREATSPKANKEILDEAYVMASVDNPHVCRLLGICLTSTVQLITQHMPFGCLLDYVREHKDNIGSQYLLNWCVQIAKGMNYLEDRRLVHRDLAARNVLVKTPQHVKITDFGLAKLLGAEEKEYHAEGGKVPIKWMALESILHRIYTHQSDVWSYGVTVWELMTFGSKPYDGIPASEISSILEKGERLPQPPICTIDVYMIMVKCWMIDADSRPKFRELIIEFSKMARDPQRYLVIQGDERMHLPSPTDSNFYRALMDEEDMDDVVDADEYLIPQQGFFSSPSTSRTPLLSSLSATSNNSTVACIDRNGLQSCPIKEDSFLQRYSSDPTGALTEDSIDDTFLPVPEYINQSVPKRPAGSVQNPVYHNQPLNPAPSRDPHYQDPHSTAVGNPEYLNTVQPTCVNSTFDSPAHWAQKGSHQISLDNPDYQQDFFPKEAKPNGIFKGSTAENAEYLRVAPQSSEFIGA

Regarding `C=CC(=O)Nc1cc(Nc2nccc(-n3c(=O)n4c5c(cc(F)cc53)CCC4)n2)c(OC)cc1N(C)CCN(C)C` [Compound 1, N-(2-((2-(dimethylamino)ethyl)(methyl)amino)-5-((4-(8-fluoro-2-oxo-5,6-dihydro-4H-imidazo[4,5,1-ij]quinolin-1(2H)-yl)pyrimidin-2-yl)amino)-4-methoxyphenyl)acrylamide], the IC50 is 0.063 nM at EGFR D770-N771insNPG; 0.049 nM in assay [1]; 0.175 nM at EGFR Del19; 27.6 nM against EGFR L792H; 0.0639 nM against EGFR T790M/L858R.

For orientation: IC50 means the concentration needed to halve the response being measured.
